Results reported in ChEMBL document CHEMBL1697781, “Assessment of the health effects of chemicals in humans: II. Construction of an adverse effects database for QSAR modeling” (Curr Drug Discov Technol, 2004).

Assays:
Settings in all cases: human; call rule not given here
Hepatotoxicity [1] = assay: FDA HLAED, gamma-glutamyl transferase (GGT) increase
Hepatotoxicity [2] = assay: FDA HLAED, serum glutamic pyruvic transaminase (SGPT) increase
Hepatotoxicity [3] = assay: FDA HLAED, liver enzyme composite activity
Hepatotoxicity [4] = assay: FDA HLAED, lactate dehydrogenase (LDH) increase
Hepatotoxicity [5] = assay: FDA HLAED, alkaline phosphatase increase
Hepatotoxicity [6] = assay: FDA HLAED, serum glutamic oxaloacetic transaminase (SGOT) increase
For GGT Increase - Index Value in this document: reference of the scale not given here.
For LDH Increase - Index Value in this document: reference of the scale not given here.

| SMILES | GGT Increase - Activity Score (Hepatotoxicity [1]) | GGT Increase - Index Value (Hepatotoxicity [1]) | GGT Increase - Number of Reports (Hepatotoxicity [1]) | SGPT Increase - Activity Score (Hepatotoxicity [2]) | SGPT Increase - Index Value (Hepatotoxicity [2]) | SGPT Increase - Number of Reports (Hepatotoxicity [2]) | Composite Activity - Active (Hepatotoxicity [3]) | Composite Activity - Marginal (Hepatotoxicity [3]) | Composite Activity - Score (Hepatotoxicity [3]) | LDH Increase - Activity Score (Hepatotoxicity [4]) | LDH Increase - Index Value (Hepatotoxicity [4]) | LDH Increase - Number of Reports (Hepatotoxicity [4]) | Alkaline Phosphatase Increase - Activity Score (Hepatotoxicity [5]) | Alkaline Phosphatase Increase - Index Value (Hepatotoxicity [5]) | Alkaline Phosphatase Increase - Number of Reports (Hepatotoxicity [5]) | SGOT Increase - Activity Score (Hepatotoxicity [6]) | SGOT Increase - Index Value (Hepatotoxicity [6]) | SGOT Increase - Number of Reports (Hepatotoxicity [6]) | other results |
| --- | --- | --- | --- | --- | --- | --- | --- | --- | --- | --- | --- | --- | --- | --- | --- | --- | --- | --- | --- |
| Nc1cc(Cl)c(N=C2NCCN2)c(Cl)c1 [APRACLONIDINE] | Inactive | 0 | < 4 | Inactive | 0 | < 4 | 0 | 0 | Inactive | Inactive | 0 | < 4 | Inactive | 0 | < 4 | Inactive | 0 | < 4 |  |
| COc1ccc(CCN2CCC(Nc3nc4ccccc4n3Cc3ccc(F)cc3)CC2)cc1 [ASTEMIZOLE] | Inactive | 1.4 | >= 4 | Inactive | 2.8 | >= 4 | 0 | 0 | Inactive | Inactive | 0.4 | < 4 | Inactive | 1.2 | >= 4 | Inactive | 2.6 | >= 4 |  |
| CC(C)NCC(O)COc1ccc(CC(N)=O)cc1 (stereo unspecified) [ATENOLOL] | Inactive | 0 | < 4 | Inactive | 0.3 | >= 4 |  |  |  | Inactive | 0.1 | < 4 | Inactive | 0.1 | < 4 | Inactive | 0.5 | >= 4 | Composite Activity - Active (Hepatotoxicity [3]; Liver): 0; Composite Activity - Marginal (Hepatotoxicity [3]; Liver): 0; Composite Activity - Score (Hepatotoxicity [3]; Liver): Inactive |
| CC(C)c1c(C(=O)Nc2ccccc2)c(-c2ccccc2)c(-c2ccc(F)cc2)n1CC[C@@H](O)C[C@@H](O)CC(=O)O [ATORVASTATIN] | Active | 6.2 | >= 4 | Active | 7.3 | >= 4 |  |  |  | Inactive | 2.5 | >= 4 | Inactive | 1.7 | >= 4 | Active | 6.5 | >= 4 | Composite Activity - Active (Hepatotoxicity [3]; Liver): 3; Composite Activity - Marginal (Hepatotoxicity [3]; Liver): 0; Composite Activity - Score (Hepatotoxicity [3]; Liver): Active |
| O=C1C(O)=C([C@H]2CC[C@H](c3ccc(Cl)cc3)CC2)C(=O)c2ccccc21 [ATOVAQUONE] | Inactive | 0 | < 4 | Inactive | 18.2 | < 4 | 0 | 0 | Inactive | Inactive | 9.1 | < 4 | Inactive | 0 | < 4 | Inactive | 18.2 | < 4 |  |
| O=C(O)CCCCCCCC(=O)O [AZELAIC ACID] | Inactive | 0 | < 4 | Inactive | 0 | < 4 | 0 | 0 | Inactive | Inactive | 0 | < 4 | Inactive | 0 | < 4 | Inactive | 0 | < 4 |  |
| CN1CCCC(n2nc(Cc3ccc(Cl)cc3)c3ccccc3c2=O)CC1 (stereo unspecified) [AZELASTINE] | Inactive | 0 | < 4 | Inactive | 0 | < 4 | 0 | 0 | Inactive | Inactive | 0 | < 4 | Inactive | 0 | < 4 | Inactive | 0 | < 4 |  |
| CC[C@H]1OC(=O)[C@H](C)[C@@H](O[C@H]2C[C@@](C)(OC)[C@@H](O)[C@H](C)O2)[C@H](C)[C@@H](O[C@@H]2O[C@H](C)C[C@H](N(C)C)[C@H]2O)[C@](C)(O)C[C@@H](C)CN(C)[C@H](C)[C@@H](O)[C@]1(C)O [AZITHROMYCIN] | Inactive | 1 | >= 4 | Inactive | 2.3 | >= 4 | 0 | 0 | Inactive | Inactive | 0.8 | >= 4 | Inactive | 1 | >= 4 | Inactive | 2.9 | >= 4 |  |
| C[C@H]1[C@H](NC(=O)/C(=N\OC(C)(C)C(=O)O)c2csc(N)n2)C(=O)N1S(=O)(=O)O [AZTREONAM] | Inactive | 0.6 | < 4 | Marginally Active | 3.8 | >= 4 | 1 | 2 | Inactive | Inactive | 0.6 | < 4 | Active | 6.9 | >= 4 | Marginally Active | 3.2 | >= 4 |  |
| CCOC(=O)OC(C)OC(=O)[C@@H]1N2C(=O)[C@@H](NC(=O)[C@H](N)c3ccccc3)[C@H]2SC1(C)C (stereo partly specified) [BACAMPICILLIN] | Inactive | 0 | < 4 | Inactive | 0 | < 4 | 0 | 0 | Inactive | Inactive | 0 | < 4 | Inactive | 0 | < 4 | Inactive | 0 | < 4 |  |
| C[C@H]1C[C@H]2[C@@H]3CCC4=CC(=O)C=C[C@]4(C)[C@@]3(Cl)[C@@H](O)C[C@]2(C)[C@@]1(O)C(=O)CO [BECLOMETHASONE] | Inactive | 0 | < 4 | Inactive | 0 | < 4 | 0 | 0 | Inactive | Inactive | 0 | < 4 | Inactive | 0 | < 4 | Inactive | 0 | < 4 |  |
| CCOC(=O)[C@H](CCc1ccccc1)N[C@H]1CCc2ccccc2N(CC(=O)O)C1=O [BENAZEPRIL] | Inactive | 0.2 | < 4 | Inactive | 0 | < 4 | 0 | 0 | Inactive | Inactive | 0.2 | < 4 | Inactive | 0.3 | < 4 | Inactive | 0 | < 4 |  |
